In PMC7012052, “Discovery of antimicrobial compounds targeting bacterial type FAD synthetases” (Journal of Enzyme Inhibition and Medicinal Chemistry, 2017):
Converted amounts (≈) assume the structure as drawn. Where a name gives a salt, the structure may show the parent alone. Read-outs that look alike come from different tables or passages of the source.

How the values were obtained:
CaFADS RFK activity = target: T1, CaFADS RFK activity (Corynebacterium ammoniagenes, UniProt Q59263); experiment: RFK activity of CaFADS in the presence of HTS hits (flavins separated by HPLC); format: biochemical; settings: pH 7, read-out: % Residual RFK activity
T1 construct: Recombinant CaFADS was overexpressed in BL21 (DE3) E. coli cells and purified as previously described; made in house; host or cells: E. coli BL21 (DE3)
T1 sequence (Q59263 whole entry): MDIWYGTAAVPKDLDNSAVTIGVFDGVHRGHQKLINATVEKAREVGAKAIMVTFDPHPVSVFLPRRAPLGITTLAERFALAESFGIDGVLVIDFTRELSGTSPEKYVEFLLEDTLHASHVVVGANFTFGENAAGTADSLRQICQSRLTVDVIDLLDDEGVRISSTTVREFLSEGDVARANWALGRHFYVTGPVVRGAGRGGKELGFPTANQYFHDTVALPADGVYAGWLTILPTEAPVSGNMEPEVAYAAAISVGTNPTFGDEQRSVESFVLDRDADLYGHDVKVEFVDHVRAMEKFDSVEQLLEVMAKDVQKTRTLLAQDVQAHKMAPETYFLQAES
Method: (§1) Then, the RFK and FMNAT reactions were individually assayed in the presence of the HTS hits at 25 °C. Reaction mixtures contained 50 µM ATP, 5 µM RF, 0.4 µM CaFADS in 20 mM PIPES, pH 7.0, 0.8 mM MgCl2, when assaying the RFK activity, and 50 µM ATP, 10 µM FMN, 0.4 µM CaFADS in 20 mM PIPES, pH 7.0, 10 mM MgCl2 when measuring the FMNAT reaction. […] Finally, reactions were stopped by boiling the samples at 100 °C for 5 min, and the precipitated protein was eliminated through centrifugation. The transformation of RF into FMN or FAD was evaluated through flavins separation by HPLC, as previously described. […] When assaying the HTS hits against the FMNAT activity of SpnFADS, similar conditions were used but samples contained 3 mM sodium dithionite to maintain the flavin in its reduced state. Data were processed as previously reported. All the experiments were performed in triplicate.

CaFADS FMNAT activity = target: T2, CaFADS FMNAT activity (Corynebacterium ammoniagenes, UniProt Q59263); experiment: FMNAT activity of CaFADS: residual activity, IC50, inhibition mechanism (HPLC); format: biochemical; settings: for Ki: global Lineweaver–Burk fit; for remaining activity at 250 µM: pH 7, read-out: % Residual FMNAT activity; for remaining activity at 50 µM: read-out: Residual activity (FMNAT)
T2 construct: Recombinant CaFADS was overexpressed in BL21 (DE3) E. coli cells and purified as previously described; made in house; host or cells: E. coli BL21 (DE3)
T2 sequence (Q59263 whole entry): as above
Method: as §1
(§2) Experiments were performed and analysed through HPLC as described above. Positive controls (without any hit compound) were included in every reaction set. DMSO concentration was kept at 2.5% in all samples. All the experiments were performed in triplicate.
All the experiments were carried out in 20 mM PIPES, 10 mM MgCl2, pH 7.0, 2.5% DMSO at 25 °C, being the final reaction volume 500 µl. The reactions were initiated by addition of CaFADS at a final concentration of ∼40 nM, followed by 1 min incubation. The flavin composition of the supernatant was analysed as previously described. All the experiments were performed in triplicate. The effect of the inhibitors on Km and Vmax was determined by fitting the data sets to the Michaelis–Menten model. Additionally, data were globally fit to Lineweaver–Burk equations for competitive, uncompetitive, non-competitive or mixed inhibition, yielding Ki, as well as Ki′ when applying, for each compound (Equations (1–4), respectively).

CaFADS = target: T3, CaFADS (Corynebacterium ammoniagenes, UniProt Q59263); experiment: Isothermal titration calorimetry (ITC) of hits binding to CaFADS; settings: ITC 25 °C, for 24: Site 1–2
T3 construct: Recombinant CaFADS was overexpressed in BL21 (DE3) E. coli cells and purified as previously described; made in house; host or cells: E. coli BL21 (DE3)
T3 sequence (Q59263 whole entry): as above
Method: ITC experiments were performed to characterise the protein’s affinity for the selected compounds, as also the thermodynamic parameters that drive the interaction. Experiments were carried out in an AutoITC200 (MicroCal) thermostated at 25 °C. In these experiments, ∼400 µM of each compound were used to titrate ∼25 µM CaFADS contained in a 200 µL cell. However, when saturation of the protein was not reached, higher concentrations of compounds were employed. The titrations were performed by stepwise injections of the titrating compound. Up to 19 injections of 2 µl were added to the cell sample and mixed using a 1000 rpm stirrer syringe. The compounds and the protein were dissolved in 20 mM PIPES, pH 7.0, 10 mM MgCl2 and degassed prior to titration. DMSO was added to the protein and ligand samples, until reach a final concentration of 3%. The association constant (Ka), the enthalpy variation (ΔH) and the binding stoichiometry (N), were obtained through non-lineal regression of the data to a model for one or two independent binding sites, implemented in Origin 7.0 (OriginLab) as previously described[27]^,[29]. The entropic contribution (−TΔS), the Gibbs free energy (ΔG) and the dissociation constant (Kd) were obtained through essential thermodynamic equations.

[1] = test system: C. ammoniagenes ATCC 6872; experiment: MIC by resazurin microplate assay (broth microdilution); format: cell-based, Corynebacterium ammoniagenes; settings: Corynebacterium ammoniagenes, ATCC6872, 16 h
[2] = test system: M. tuberculosis ATCC 27,294; experiment: as above; format: cell-based, Mycobacterium tuberculosis; settings: for MIC: Mycobacterium tuberculosis, ATCC27, 144 h, read-out: Minimal inhibitory concentration (MIC) M. tuberculosis
S. pneumoniae ATCC 49619 = experiment: as above; format: cell-based, Streptococcus pneumoniae; settings: Streptococcus pneumoniae, ATCC49619, 10 h; read-out: Minimal inhibitory concentration (MIC) S. pneumoniae
SpnFADS FMNAT activity = SpnFADS FMNAT activity (Streptococcus pneumoniae, UniProt A0A0H2UPY5); experiment: biochemical; settings: SpnFADS, 25 °C
Chain of SpnFADS FMNAT activity (A0A0H2UPY5 entry or part of it): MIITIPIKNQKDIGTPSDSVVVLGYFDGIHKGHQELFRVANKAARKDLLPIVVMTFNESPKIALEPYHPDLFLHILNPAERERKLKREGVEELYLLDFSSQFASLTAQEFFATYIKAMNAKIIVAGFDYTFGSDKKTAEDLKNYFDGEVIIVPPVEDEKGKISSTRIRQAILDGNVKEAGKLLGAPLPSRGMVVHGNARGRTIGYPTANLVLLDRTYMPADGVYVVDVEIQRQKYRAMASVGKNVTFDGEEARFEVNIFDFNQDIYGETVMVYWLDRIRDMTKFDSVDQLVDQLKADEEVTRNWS
Method: as §1, §2

SpnFADS RFK activity = SpnFADS RFK activity (Streptococcus pneumoniae, UniProt A0A0H2UPY5); experiment: biochemical; settings: SpnFADS, 25 °C
Chain of SpnFADS RFK activity (A0A0H2UPY5 entry or part of it): as above
Method: as §1, §2

[3] = read-out: Minimal inhibitory concentration (MIC) C. ammoniagenes, assayed 0.125–64 μM, 16 h at 37 °C, BHI
[4] = read-out: Minimal inhibitory concentration (MIC) C. ammoniagenes

Structure (SMILES)	remaining activity at 250 µM (CaFADS RFK activity) [%]	IC50 (CaFADS FMNAT activity) [µM]	remaining activity at 250 µM (CaFADS FMNAT activity) [%]	remaining activity at 50 µM (CaFADS FMNAT activity) [%]	MIC [1, 3] [µM]	MIC [1, 4] [µM]	MIC [2] [µM]	MIC (S. pneumoniae ATCC 49619) [µM]	further results
Cc1c(Nc2ncccc2C(=O)O)cccc1C(F)(F)F [HTS hit 31, flunixin meglumine]	≥ 75	6.6 ± 0.6	≤ 5	24.5 ± 1.9	> 64	32 to 64	> 64	> 64	Inhibition mechanism (CaFADS FMNAT activity; CaFADS FMNAT, saturating ATP (regarding the FMN substrate)): Non-competitive; Inhibition mechanism (CaFADS FMNAT activity; CaFADS FMNAT, saturating FMN (regarding the ATP substrate)): Mixed; K'i (CaFADS FMNAT activity; CaFADS FMNAT, saturating FMN, varying ATP, binding to the CaFADS-ATP complex): 18.4 ± 4.0 µM; Ki (CaFADS FMNAT activity; CaFADS FMNAT, saturating ATP, varying FMN): 0.09 ± 0.03 µM; Ki (CaFADS FMNAT activity; CaFADS FMNAT, saturating FMN, varying ATP): 3.5 ± 1 µM; apparent kcat (CaFADS FMNAT activity; saturating ATP, varying FMN, inhibitor 1 μM): 0.41 ± 0.0483 s⁻¹; apparent kcat (CaFADS FMNAT activity; saturating ATP, varying FMN, inhibitor 4 μM): 0.302 ± 0.0233 s⁻¹; apparent kcat (CaFADS FMNAT activity; saturating ATP, varying FMN, inhibitor 5 μM): 0.107 ± 0.02 s⁻¹; apparent kcat (CaFADS FMNAT activity; saturating ATP, varying FMN, inhibitor 7 μM): 0.05 ± 0.0067 s⁻¹; apparent kcat (CaFADS FMNAT activity; saturating ATP, varying FMN, inhibitor 10 μM): 0.05 ± 0.0067 s⁻¹; apparent kcat (CaFADS FMNAT activity; saturating FMN, varying ATP, inhibitor 4 μM): 0.328 ± 0.0167 s⁻¹; apparent kcat (CaFADS FMNAT activity; saturating FMN, varying ATP, inhibitor 5 μM): 0.288 ± 0.0183 s⁻¹; apparent kcat (CaFADS FMNAT activity; saturating FMN, varying ATP, inhibitor 7 μM): 0.282 ± 0.01 s⁻¹; apparent kcat (CaFADS FMNAT activity; saturating FMN, varying ATP, inhibitor 10 μM): 0.255 ± 0.0217 s⁻¹; apparent kcat (CaFADS FMNAT activity; saturating FMN, varying ATP, inhibitor 12 μM): 0.23 ± 0.0167 s⁻¹; N (binding stoichiometry) (CaFADS; 3% DMSO): ≈ 1; ΔG (CaFADS; average value where N ≈ 2): -6.2 ± 0.6 kcal/mol; ΔH (CaFADS; average value where N ≈ 2): -7.2 ± 0.4 kcal/mol; −TΔS (CaFADS; average value where N ≈ 2): 1.1 ± 0.1 kcal/mol; Kd (CaFADS; Kd, 3% DMSO, average value for two hit molecules where N ≈ 2): 30.9 ± 2.8 µM
O=C(O)c1cccnc1Nc1cccc(C(F)(F)F)c1 [HTS hit 11]	≥ 75	9 ± 1.3	≤ 5	34.6 ± 4.9		> 64	> 64	> 64	
CCCCC(CC)CNC(=N)NC(=N)NCCCCCCNC(=N)NC(=N)NCC(CC)CCCC (centres unmarked) [HTS hit 33, alexidine dihydrochloride]	≤ 5		≤ 5		< 2	0.125	2 to 4	0.5	activity at 100 µM (SpnFADS FMNAT activity; 100 μM of each compound, n = 3, mean ± SD, read-out: FMNAT activity Res. activity): 93 ± 11%; IC50 (SpnFADS FMNAT activity; compounds assayed 0–100 μM, read-out: FMNAT activity IC50): > 100 µM; activity at 100 µM (SpnFADS RFK activity; 100 μM of each compound, n = 3, mean ± SD, read-out: RFK activity Res. activity): 26 ± 3%; IC50 (SpnFADS RFK activity; compounds assayed 0–100 μM, read-out: RFK activity IC50): 33 ± 4 µM; Minimal inhibitory concentration (MIC) M. tuberculosis ([2]; assayed 0.125–64 μM, 6 days at 37 °C, Middlebrook 7H9): below 8 μM
C/C=C(/C(=C/C)c1ccc(O)cc1)c1ccc(O)cc1 [HTS hit 35, dienestrol]	≤ 5		5 to 50		2 to 16 (≈ 0.533 to 4.26 µg/mL)	16 to 32 (≈ 4.26 to 8.52 µg/mL)	> 64	64 (≈ 17 µg/mL)	
CCc1oc2ccccc2c1C(=O)c1cc(Br)c(O)c(Br)c1 [HTS hit 17, benzbromarone]	≥ 75	12.8 ± 3.4	≤ 5	33.5 ± 10.1	2 to 16 (≈ 0.848 to 6.79 µg/mL)	8 (≈ 3.39 µg/mL)	> 64	> 64	
O=C(O)c1cc(/N=N/c2ccc(S(=O)(=O)Nc3ccccn3)cc2)ccc1O [HTS hit 8, sulfasalazine]	≥ 75		5 to 50						
CC/C(=C(/CC)c1ccc(O)cc1)c1ccc(O)cc1 [HTS hit 32, diethylstilbestrol]	50 to 75		5 to 50		2 to 16 (≈ 0.537 to 4.29 µg/mL)	8 (≈ 2.15 µg/mL)	> 64	64 (≈ 17.2 µg/mL)	
